We go through ten compounds from ChEMBL document CHEMBL4680279, “Opportunities for Tapping into Three-Dimensional Chemical Space through a Quaternary Carbon” (J Med Chem, 2020).

pEC50, pKi: −log10 of the molar value. In brackets after ≈: the same amount, converted by molar mass.

One test concerns Candida albicans. Nature of the test: Antifungal activity against Candida albicans 124 incubated for 48 hrs. The test is classed as functional.
Another test deals with Aspergillus fumigatus. Nature of the test: Antifungal activity against Aspergillus fumigatus incubated for 72 hrs. Type of test: functional.
Test [1] can be described thus: Displacement of N-[3H]ethyladenosin-5'-uronamide from adenosine receptor A2 in rat striatal membranes by liquid scintillation counting method. The test is classed as cell membranes, Striatum, Membrane.
Test [2] is described as follows: Selectivity ratio of Ki for Displacement of N-[3H]ethyladenosin-5'-uronamide from adenosine receptor A2 in rat striatal membranes to Ki for Displacement of N6-[3H]cyclohexyladenosine from adenosine receptor A1 in guinea pig forebrain membranes. Type of test: cell membranes.
Test [3] deals with Growth hormone secretagogue receptor type 1 (Rattus norvegicus, UniProt O08725). Nature of the test: Agonist activity at GHSR in Wistar rat pituitary gland cells assessed as induction of GH release by RIA. The test is classed as tissue-based, Pituitary gland cell.
Sequence of Growth hormone secretagogue receptor type 1 (O08725 whole entry): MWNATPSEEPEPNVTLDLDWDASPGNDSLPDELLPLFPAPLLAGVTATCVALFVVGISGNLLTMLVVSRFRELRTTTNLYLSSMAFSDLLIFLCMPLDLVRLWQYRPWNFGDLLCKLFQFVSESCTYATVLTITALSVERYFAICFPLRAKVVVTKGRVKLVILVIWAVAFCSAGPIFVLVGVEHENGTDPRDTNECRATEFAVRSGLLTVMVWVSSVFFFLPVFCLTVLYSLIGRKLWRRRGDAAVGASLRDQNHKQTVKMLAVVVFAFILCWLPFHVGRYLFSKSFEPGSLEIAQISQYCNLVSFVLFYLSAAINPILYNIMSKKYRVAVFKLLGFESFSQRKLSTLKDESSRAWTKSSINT
In test [4] the target is Cholecystokinin(CCK) A/B (Homo sapiens) (UniProt P32239+P32238). In words: Selectivity index, ratio of IC50 for human Cholecystokinin B receptor expressed in CHO-K1 cells to IC50 for human Cholecystokinin A receptor expressed in CHO-K1 cells. The test is classed as cell-based.
Sequence of Cholecystokinin(CCK) A/B (Homo sapiens) (P32238 whole entry, looked up): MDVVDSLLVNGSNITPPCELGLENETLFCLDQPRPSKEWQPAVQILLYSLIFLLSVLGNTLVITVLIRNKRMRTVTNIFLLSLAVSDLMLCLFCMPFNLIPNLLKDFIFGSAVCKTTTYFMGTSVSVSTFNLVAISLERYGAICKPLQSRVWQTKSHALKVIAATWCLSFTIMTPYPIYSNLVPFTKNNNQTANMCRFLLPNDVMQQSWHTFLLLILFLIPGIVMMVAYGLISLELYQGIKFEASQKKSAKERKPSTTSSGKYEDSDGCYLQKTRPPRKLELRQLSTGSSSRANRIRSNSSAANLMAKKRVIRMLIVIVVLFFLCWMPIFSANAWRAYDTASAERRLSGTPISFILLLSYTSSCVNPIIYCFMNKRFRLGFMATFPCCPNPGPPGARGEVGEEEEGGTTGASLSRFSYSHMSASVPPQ
Sequence of Cholecystokinin(CCK) A/B (Homo sapiens) (P32239 whole entry, looked up): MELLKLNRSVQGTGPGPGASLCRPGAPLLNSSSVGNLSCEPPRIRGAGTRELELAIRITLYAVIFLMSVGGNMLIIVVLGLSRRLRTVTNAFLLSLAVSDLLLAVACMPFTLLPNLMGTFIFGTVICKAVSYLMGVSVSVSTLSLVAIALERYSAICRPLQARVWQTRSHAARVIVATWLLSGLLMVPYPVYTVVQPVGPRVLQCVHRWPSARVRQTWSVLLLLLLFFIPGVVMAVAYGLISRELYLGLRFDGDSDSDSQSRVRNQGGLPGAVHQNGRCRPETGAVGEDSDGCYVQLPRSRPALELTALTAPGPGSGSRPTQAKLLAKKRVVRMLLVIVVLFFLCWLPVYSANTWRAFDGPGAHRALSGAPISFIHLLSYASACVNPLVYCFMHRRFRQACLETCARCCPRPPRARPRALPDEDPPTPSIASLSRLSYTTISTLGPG

For the compound `CN(Cc1ccc(C2(c3ccccc3)CC2)cc1)Cc1cccc2ccccc12`, the MIC worked out at 3.13 µg/mL (≈ 8.29 µM) against Candida albicans and 1.56 µg/mL (≈ 4.13 µM) against Aspergillus fumigatus.
Take `CCCn1c(=O)c2[nH]c(C3CCCC3)nc2n(CCC)c1=O` [1,3-DIPROPYL-8-CYCLOPENTYLXANTHINE [DPCPX]]: the pKi in test [1] is 6.23.
On to `CCCn1c(=O)c2nc(C3C(C)(C)CCC3(C)C)[nH]c2n(CCC)c1=O`, for which the pKi in test [1] is < 4.00. The Ratio Ki in test [2] was > 4500.
Consider `CN(Cc1ccc(Cc2ccccc2)cc1)Cc1cccc2ccccc12`, for which the MIC in the test on Candida albicans and with Aspergillus fumigatus was > 100 µg/mL each time.
Consider `CN1N=C2CCN(C(=O)[C@@H](COCc3ccccc3)NC(=O)C(C)(C)N)C[C@@]2(Cc2ccccc2)C1=O` [CAPROMORELIN], for which the pEC50 in test [3] was 8.52.
`CC(C)N(C(=O)CN1C(=O)C(C)(CC(=O)Nc2ccccc2)C(=O)N(c2ccccc2)c2ccccc21)c1ccccc1` (centres undefined): the Ratio IC50 in test [4] amounted to 110.
As to `CC(C)N(C(=O)CN1C(=O)C(CC(=O)Nc2ccccc2)C(=O)N(c2ccccc2)c2ccccc21)c1ccccc1` (centres undefined), the Ratio IC50 in test [4] turned out to be 5.
In the case of `O=C(NC(Cc1c[nH]c2ccccc12)C(=O)N1CCC2(CCc3ccccc32)CC1)NC1CN2CCC1CC2` (centres undefined) [SPIROPIPERIDINE], in test [3], the pEC50 was 7.30.
On to `CN(Cc1ccc(C(C)(C)c2ccccc2)cc1)Cc1cccc2ccccc12`, for which the MIC amounted to 1.56 µg/mL (≈ 4.11 µM) in the test on Candida albicans and 0.1 µg/mL (≈ 0.263 µM) against Aspergillus fumigatus.
Consider `CC(C)N(C(=O)CN1C(=O)C(C)(NC(=O)Nc2ccccc2)C(=O)N(c2ccccc2)c2ccccc21)c1ccccc1` (centres undefined), for which the Ratio IC50 in test [4] amounted to 0.2.

In general, MIC refers to the lowest concentration found to suppress growth. The term pKi denotes the negative decadic logarithm of the Ki, by convention in mol/L. Low readings indicate a high Ki, high ones a low Ki. The term pEC50 denotes −log10 of the EC50, conventionally taken in molar units.
